Test results from patent publication US20220339143A1, “TAK-925 FOR USE IN TREATING NARCOLEPSY” (Takeda Pharmaceutical Company Limited, priority 2019, published 2022).
Entries after “also recorded” stand apart in the source; their conditions may differ. Like-named read-outs stand apart in the source and are kept apart here.

Test: Single dose PK in healthy subjects (Cohorts 1, 2, S1 and S2), plasma
Format: in vivo, human
Procedure: This study investigates (i) the safety and tolerability of Compound A (methyl (2R,3S)-3-((methylsulfonyl)amino)-2-(((cis-4-phenylcyclohexyl)oxy)methyl)piperidine-1-carboxylate) when a single dose given as a 9 hour continuous IV infusion is administered to healthy adults, healthy elderly subjects and patients with narcolepsy type 1 (NT1); (ii) the pharmacokinetics of Compound A when a single dose given as a 9 hour continuous IV infusion is administered to healthy adults, healthy elderly subjects and patients with narcolepsy type 1; and (iii) the pharmacodynamics (PD) effects of Compound A, primarily by evaluation of the sleep latency on MWT when a single dose given as a 9 hour continuous IV infusion is administered to patients with narcolepsy type 1.
Pharmacokinetics: Concentrations of Compound A in plasma, and CSF, and pharmacokinetics parameters.
On average, the time to reach the plateau appeared to be approximately 3 to 4 hours after the start of infusion. […] After switching off the IV infusion, Compound A plasma concentrations declined rapidly and in a biphasic manner with a mean terminal disposition phase t1/2z ranging approximately from 3.4 to 5.1 hours across all doses. […] Table 5 provides a summary of plasma concentrations of Compound A after a single IV infusion in healthy subjects. Table 6 provides a summary of pharmacokinetic parameters of Compound A after a single IV infusion in healthy subjects.

[1] = 56 mg, 2 hr After End of Infusion
[2] = 112 mg single IV infusion, healthy subjects
[3] = 112 mg, 0.17 hr After End of Infusion
[4] = 134.4 mg single IV infusion, healthy subjects
[5] = 134.4 mg, 0.17 hr After End of Infusion
[6] = 180 mg single IV infusion, healthy subjects
[7] = 240 mg single IV infusion, healthy subjects
[8] = human, plasma, intravenous, 7 mg, read-out: Plasma concentration, Mean
[9] = human, plasma, intravenous, 7 mg, read-out: Plasma concentration, Median
[10] = human, plasma, intravenous, 7 mg, read-out: Plasma concentration, Minimum
[11] = human, plasma, intravenous, 7 mg, read-out: Plasma concentration, Q1

**Q.** Which results are given for `COC(=O)N1CCC[C@H](NS(C)(=O)=O)[C@@H]1CO[C@H]1CC[C@@H](c2ccccc2)CC1` [Compound A, methyl (2R,3S)-3-((methylsulfonyl)amino)-2-(((cis-4-phenylcyclohexyl)oxy)methyl)piperidine-1-carboxylate]?
**A.** Plasma concentration, Mean [1]: 21.70 ng/mL; Plasma concentration, Minimum [1]: 15.4 ng/mL; Plasma concentration, Q1 [1]: 15.60 ng/mL; AUCinf D Mean [2]: 18.87 ng·h/mL/mg; AUCinf D Median [2]: 19.25 ng·h/mL/mg; Cmax D Mean [2]: 2.130 ng/mL/mg; Cmax D Median [2]: 2.230 ng/mL/mg; t½z Mean [2]: 3.788 h; t½z Median [2]: 3.370 h; Plasma concentration, Maximum [3]: 138 ng/mL; Plasma concentration, Mean [3]: 126.2 ng/mL; Plasma concentration, Median [3]: 133.0 ng/mL; Plasma concentration, Minimum [3]: 106 ng/mL; Plasma concentration, Q1 [3]: 110.0 ng/mL; Plasma concentration, Q3 [3]: 137.0 ng/mL; Plasma concentration, Maximum (112 mg, Predose): 0.00 ng/mL; Plasma concentration, Median (112 mg, Predose): 0.000 ng/mL; Plasma concentration, Minimum (112 mg, Predose): 0.00 ng/mL; Plasma concentration, Q1 (112 mg, Predose): 0.000 ng/mL; Plasma concentration, Q3 (112 mg, Predose): 0.000 ng/mL; AUCinf D Mean [4]: 20.23 ng·h/mL/mg; AUCinf D Median [4]: 19.95 ng·h/mL/mg; Cmax D Mean [4]: 2.293 ng/mL/mg; Cmax D Median [4]: 2.340 ng/mL/mg; t½z Mean [4]: 3.943 h; t½z Median [4]: 3.760 h; Plasma concentration, Maximum [5]: 255 ng/mL; Plasma concentration, Mean [5]: 181.7 ng/mL; Plasma concentration, Median [5]: 167.5 ng/mL; Plasma concentration, Minimum [5]: 145 ng/mL; Plasma concentration, Q1 [5]: 148.0 ng/mL; Plasma concentration, Q3 [5]: 207.0 ng/mL; Plasma concentration, Maximum (134.4 mg, Predose): 0.00 ng/mL; Plasma concentration, Mean (134.4 mg, Predose): 0.000 ng/mL; Plasma concentration, Median (134.4 mg, Predose): 0.000 ng/mL; Plasma concentration, Minimum (134.4 mg, Predose): 0.00 ng/mL; Plasma concentration, Q1 (134.4 mg, Predose): 0.000 ng/mL; Plasma concentration, Q3 (134.4 mg, Predose): 0.000 ng/mL; AUCinf D Mean [6]: 16.73 ng·h/mL/mg; AUCinf D Median [6]: 16.90 ng·h/mL/mg; Cmax D Mean [6]: 1.918 ng/mL/mg; Cmax D Median [6]: 1.990 ng/mL/mg; t½z Mean [6]: 3.363 h; t½z Median [6]: 3.225 h; AUCinf D Mean [7]: 19.28 ng·h/mL/mg; AUCinf D Median [7]: 18.45 ng·h/mL/mg; Cmax D Mean [7]: 2.133 ng/mL/mg; Cmax D Median [7]: 2.010 ng/mL/mg; Vss Median [7]: 99.25 L; t½z Mean [7]: 4.033 h; t½z Median [7]: 4.230 h; dose proportionality of mean plasma systemic exposure (doses of 7 to 240 mg, healthy adults): increased approximately dose proportionally; also recorded: exhibits linear pharmacokinetics; concentration at 0.33 h after end of infusion [8]: 7.34 ng/mL; concentration at 0.33 h after end of infusion [9]: 7.16 ng/mL; concentration at 0.33 h after end of infusion [10]: 6.28 ng/mL; concentration at 0.33 h after end of infusion [11]: 7.12 ng/mL; concentration at 0.33 h after end of infusion (human, plasma, intravenous, 7 mg, read-out: Plasma concentration, Q3): 7.26 ng/mL; concentration at 0.5 h after end of infusion [8]: 6.73 ng/mL; concentration at 0.5 h after end of infusion [9]: 6.46 ng/mL; concentration at 0.5 h after end of infusion [10]: 6.1 ng/mL; concentration at 0.5 h after end of infusion [11]: 6.26 ng/mL; concentration at 0.5 h (human, plasma, intravenous, 7 mg, 0.5 hr, read-out: Plasma concentration, Maximum): 10.5 ng/mL; concentration at 0.5 h (human, plasma, intravenous, 7 mg, 0.5 hr, read-out: Plasma concentration, Mean): 9.15 ng/mL; concentration at 0.5 h (human, plasma, intravenous, 7 mg, 0.5 hr, read-out: Plasma concentration, Median): 9.54 ng/mL; concentration at 0.5 h (human, plasma, intravenous, 7 mg, 0.5 hr, read-out: Plasma concentration, Minimum): 6.99 ng/mL; concentration at 0.5 hr (human, plasma, intravenous, 7 mg, 0.5 hr, read-out: Plasma concentration, Q1): 7.83 ng/mL; concentration at 0.5 h (human, plasma, intravenous, 7 mg, 0.5 hr, read-out: Plasma concentration, Q3): 10.5 ng/mL; concentration at 0.75 h after end of infusion [8]: 5.55 ng/mL; concentration at 0.75 h after end of infusion [9]: 5.38 ng/mL; concentration at 0.75 h after end of infusion [10]: 5.27 ng/mL; concentration at 0.75 h after end of infusion [11]: 5.35 ng/mL; concentration at 1 h after end of infusion [8]: 4.91 ng/mL; concentration at 1 h after end of infusion [9]: 4.83 ng/mL; concentration at 1 h after end of infusion [10]: 4.34 ng/mL; concentration at 1 h after end of infusion [11]: 4.82 ng/mL; concentration at 1 h (human, plasma, intravenous, 7 mg, 1 hr, read-out: Plasma concentration, Maximum): 15.1 ng/mL; concentration at 1 h (human, plasma, intravenous, 7 mg, 1 hr, read-out: Plasma concentration, Mean): 11.7 ng/mL; concentration at 1 h (human, plasma, intravenous, 7 mg, 1 hr, read-out: Plasma concentration, Median): 11.9 ng/mL; concentration at 1 h (human, plasma, intravenous, 7 mg, 1 hr, read-out: Plasma concentration, Minimum): 8.68 ng/mL; concentration at 1 hr (human, plasma, intravenous, 7 mg, 1 hr, read-out: Plasma concentration, Q1): 9.45 ng/mL; concentration at 1 h (human, plasma, intravenous, 7 mg, 1 hr, read-out: Plasma concentration, Q3): 13.2 ng/mL; concentration at 1.5 h after end of infusion [8]: 4.25 ng/mL; concentration at 1.5 h after end of infusion [9]: 4.5 ng/mL; concentration at 1.5 h after end of infusion [10]: 3.27 ng/mL; concentration at 1.5 h after end of infusion [11]: 4.15 ng/mL; concentration at 1.5 h (human, plasma, intravenous, 7 mg, 1.5 hr, read-out: Plasma concentration, Maximum): 17.6 ng/mL; concentration at 1.5 h (human, plasma, intravenous, 7 mg, 1.5 hr, read-out: Plasma concentration, Mean): 13.1 ng/mL; concentration at 1.5 h (human, plasma, intravenous, 7 mg, 1.5 hr, read-out: Plasma concentration, Median): 13 ng/mL; concentration at 1.5 h (human, plasma, intravenous, 7 mg, 1.5 hr, read-out: Plasma concentration, Minimum): 8.96 ng/mL; concentration at 1.5 hr (human, plasma, intravenous, 7 mg, 1.5 hr, read-out: Plasma concentration, Q1): 12 ng/mL; concentration at 1.5 h (human, plasma, intravenous, 7 mg, 1.5 hr, read-out: Plasma concentration, Q3): 14 ng/mL; concentration at 2 h (human, plasma, intravenous, 7 mg, 2 hr, read-out: Plasma concentration, Maximum): 18.5 ng/mL; concentration at 2 h (human, plasma, intravenous, 7 mg, 2 hr, read-out: Plasma concentration, Mean): 14.8 ng/mL; concentration at 2 h (human, plasma, intravenous, 7 mg, 2 hr, read-out: Plasma concentration, Median): 14.9 ng/mL; concentration at 2 h (human, plasma, intravenous, 7 mg, 2 hr, read-out: Plasma concentration, Minimum): 10.9 ng/mL; concentration at 2 hr (human, plasma, intravenous, 7 mg, 2 hr, read-out: Plasma concentration, Q1): 12.8 ng/mL; concentration at 2 h (human, plasma, intravenous, 7 mg, 2 hr, read-out: Plasma concentration, Q3): 16.5 ng/mL; concentration at 3 h (human, plasma, intravenous, 7 mg, read-out: Plasma concentration, Maximum): 20.2 ng/mL; concentration at 3 h [8]: 16.5 ng/mL; concentration at 3 h [9]: 15.8 ng/mL; concentration at 3 h [10]: 13.2 ng/mL
